Columns and labels:
[1] = biological target: T1, mTORC1 (Homo sapiens, UniProt P42345+P62942); experiment: mTORC1 inhibition in PC-3 cells, AlphaLISA of p70S6K pT389 levels; assay type: cell-based; details: mTORC1 as measured by inhibition of p70S6K pT389 levels, read-out: mTROC1 IC50
T1 construct: endogenous in cells; host or cells: PC-3 cells
Protocol: mTORC1 inhibition was determined via analysis of phosphorylation levels of Phospho-p70 S6 kinase (p70S6K pT389) and Phospho-S6 Ribosomal Protein (pRPS6 pS240/pS244) with the corresponding AlphaLISA kits (PerkinElmer Alpha SF Ultra™ Multiplex phospho (Thr389)/total p70 S6K Assay Kit (Eu/Tb) and AlphaLISA SF Ultra™ p-Ribosomal Protein S6 (Ser240/244) Assay Kit).
%−activity=100*((Sample−Low control)/(High control−Low control))

[2] = biological target: FKBP12 ternary complex with FRB (Homo sapiens, UniProt P42345+P62942); experiment: SPR assay to characterize ternary complex formation with FKBP12 (FRB injected over compound-saturated FKBP12); assay type: binding; details: FRB dilutions with 100 nM test compound over immobilized FKBP12
Protocol: Biotinylated avi-FKBP12 was immobilized on a streptavidin chip (Cytiva Series S SA) using a Biacore 8K or 8k+ (Cytiva). To achieve an immobilization level of 100 RU, 0.3 μg/ml biotinylated avi-FKBP12 were injected for 80 sec at a flow rate of 10 μl/min. Serial dilution of FRB was prepared (12 concentrations, 3-fold dilutions, 0.00011-20 μM) and supplemented with 100 nM of a test compound. A-B-A injection mode was used to ensure saturation immobilized FKBP12 with respective test compound. 100 nM solution of the respective test compound was injected before FRB injection for 120 sec and during dissociation for 420 sec. The FRB dilutions were then injected 120 seconds contact time with increasing concentrations. Rapamycin was used as reference sample. 50 mM HEPES pH 7.5, 150 mM NaCl, 2 mM MgCl2, 1 mM DTT, 0.05% Tween-20, 1% DMSO was used as running buffer at a flow rate of 30 μl/min. The multi-cycle kinetics data were fit to a 1:1 binding model to measure the association rate ka (1/Ms), the dissociation rate kd (1/s) and the affinity Kd (M). In case of fast association and dissociation, steady state affinity analysis following the law of mass action was used to determine the affinity Kd (M).

[3] = biological target: FKBP12 (Homo sapiens, UniProt P62942); experiment: SPR assay to determine binding affinity to FKBP12 (direct binding); details: immobilized biotinylated avi-FKBP12, single-cycle kinetics
FKBP12, sequence (P62942 whole entry, species assumed): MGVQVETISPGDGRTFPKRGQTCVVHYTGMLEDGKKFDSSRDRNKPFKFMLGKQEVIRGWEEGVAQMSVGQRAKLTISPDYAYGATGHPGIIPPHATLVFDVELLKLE
Protocol: SPR Assay to Determine Binding Affinity to FKBP12.
Biotinylated avi-FKBP12 was immobilized on a streptavidin chip (Cytiva Series S SA) using a Biacore 8K or 8k+ (Cytiva). […] Test compounds described in Table 11 were diluted in DMSO to 100× working concentration. Each test compound was 100-fold diluted in 50 mM HEPES pH 7.5, 150 mM NaCl, 2 mM MgCl2, 1 mM DTT, 0.05% Tween-20 and a serial dilution prepared (9 concentrations, 3-fold dilutions, 0.08-500 nM). […] The compound dilutions were then injected at 100 uL/min for 120 seconds contact time in sequence with increasing concentrations. Dissociation was monitored for 3600 seconds. 50 mM HEPES pH 7.5, 150 mM NaCl, 2 mM MgCl2, 1 mM DTT, 0.05% Tween-20, 1% DMSO was used as running buffer. The single-cycle kinetics data were fit to a 1:1 binding model to measure the association rate ka (1/Ms), the dissociation rate kd (1/s) and the affinity Kd (M).

Q: What does the source list for `COCCO[C@H]1C[C@@H]2CC[C@@H](C)[C@@](O)(O2)C(=O)C(=O)N2CCCCC2C(=O)O[C@H]([C@H](C)C[C@@H]2CC[C@@H](OCCCN3CCN(C)CC3)[C@H](OC)C2)CC(=O)[C@H](C)/C=C(\C)[C@@H](O)[C@@H](OC)C(=O)[C@H](C)C[C@H](C)/C=C/C=C/C=C/1C` (relative stereo) [Compound 431, (1R,9S,12S,15R,16E,18R,19R,21R,23S,24E,26E,28E,30S*,32S,35R)-1,18-dihydroxy-19-methoxy-30-(2-methoxyethoxy)-12-[(1R)-2-[(1S,3R,4R)-3-methoxy-4-[3-(4-methylpiperazin-1-yl)propoxy]cyclohexyl]-1-methyl-ethyl]-15,17,21,23,29,35-hexamethyl-11,36-dioxa-4-azatricyclo[30.3.1.0^4,9]hexatriaconta-16,24,26,28-tetraene-2,3,10,14,20-pentone]?
A: IC50 [1]: < 0.8 nM; Kd [2]: < 500 nM; Kd [3]: 0.3 to 1 nM

Q: What does the source list for `CO[C@@H]1C[C@H](C[C@@H](C)[C@@H]2CC(=O)[C@H](C)/C=C(\C)[C@@H](O)[C@@H](OC)C(=O)[C@H](C)C[C@H](C)/C=C/C=C/C=C(\C)[C@H](OCCCCO)C[C@@H]3CC[C@@H](C)[C@@](O)(O3)C(=O)C(=O)N3CCCC[C@H]3C(=O)O2)CC[C@H]1OCCCN1CCOCC1` [Compound 27, (1R,9S,12S,15R,16E,18R,19R,21R,23S,24E,26E,28E,30R,32S,35R)-1,18-dihydroxy-30-(4-hydroxybutoxy)-19-methoxy-12-[(1R)-2-[(1S,3R,4R)-3-methoxy-4-(3-morpholinopropoxy)cyclohexyl]-1-methyl-ethyl]-15,17,21,23,29,35-hexamethyl-11,36-dioxa-4-azatricyclo[30.3.1.04,9]hexatriaconta-16,24,26,28-tetraene-2,3,10,14,20-pentone]?
A: IC50 [1]: 0.8 to 1.5 nM; Kd [2]: 500 to 1100 nM; Kd [3]: < 0.3 nM

Q: How did the IC50 [1] turn out when `COCCO[C@@H]1C[C@@H]2CC[C@@H](C)[C@@](O)(O2)C(=O)C(=O)N2CCCC[C@H]2C(=O)O[C@H]([C@H](C)C[C@@H]2CC[C@@H](OCCCO)[C@H](OC)C2)CC(=O)[C@H](C)/C=C(\C)[C@@H](O)[C@@H](OC)C(=O)[C@H](C)C[C@H](C)/C=C/C=C/C=C/1C` [Compound 28, (1R,9S,12S,15R,16E,18R,19R,21R,23S,24E,26E,28E,30R,32S,35R)-1,18-dihydroxy-12-[(1R)-2-[(1S,3R,4R)-4-(3-hydroxypropoxy)-3-methoxy-cyclohexyl]-1-methyl-ethyl]-19-methoxy-30-(2-methoxyethoxy)-15,17,21,23,29,35-hexamethyl-11,36-dioxa-4-azatricyclo[30.3.1.04,9]hexatriaconta-16,24,26,28-tetraene-2,3,10,14,20-pentone] was run?
A: Its IC50 is greater than 1.5 nM.

Q: What about the Kd [2] of the same molecule?
A: Its Kd is 500 to 1100 nM.

Q: And the Kd [3]?
A: The Kd was greater than 1 nM.

Q: `COCCO[C@@H]1C[C@@H]2CC[C@@H](C)[C@@](O)(O2)C(=O)C(=O)N2CCCC[C@H]2C(=O)O[C@H]([C@H](C)C[C@@H]2CC[C@@H](OCCCN3CCN(C)CC3)[C@H](OC)C2)CC(=O)[C@H](C)/C=C(\C)[C@@H](O)[C@@H](OC)C(=O)[C@H](C)C[C@H](C)/C=C/C=C/C=C/1C` [Compound 32, (1R,9S,12S,15R,16E,18R,19R,21R,23S,24E,26E,28E,30R,32S,35R)-1,18-dihydroxy-19-methoxy-30-(2-methoxyethoxy)-12-[(1R)-2-[(1S,3R,4R)-3-methoxy-4-[3-(4-methylpiperazin-1-yl)propoxy]cyclohexyl]-1-methyl-ethyl]-15,17,21,23,29,35-hexamethyl-11,36-dioxa-4-azatricyclo[30.3.1.04,9]hexatriaconta-16,24,26,28-tetraene-2,3,10,14,20-pentone] was tested. Which IC50 [1] did it give?
A: The IC50 was greater than 1.5 nM.

Q: And the Kd [2]?
A: The Kd was greater than 1100 nM.

Q: What about the Kd [3] of the same molecule?
A: The Kd was 0.3 to 1 nM.

Q: How did the IC50 [1] turn out when `COCCO[C@@H]1C[C@@H]2CC[C@@H](C)[C@@](O)(O2)C(=O)C(=O)N2CCCC[C@H]2C(=O)O[C@H]([C@H](C)C[C@@H]2CC[C@@H](OCCO)[C@H](OC)C2)CC(=O)[C@H](C)/C=C(\C)[C@@H](O)[C@@H](OC)C(=O)[C@H](C)C[C@H](C)/C=C/C=C/C=C/1C` [Compound 40, (1R,9S,12S,15R,16E,18R,19R,21R,23S,24E,26E,28E,30R,32S,35R)-1,18-dihydroxy-12-[(1R)-2-[(1S,3R,4R)-4-(2-hydroxyethoxy)-3-methoxy-cyclohexyl]-1-methyl-ethyl]-19-methoxy-30-(2-methoxyethoxy)-15,17,21,23,29,35-hexamethyl-11,36-dioxa-4-azatricyclo[30.3.1.0^4,9]hexatriaconta-16,24,26,28-tetraene-2,3,10,14,20-pentone] was run?
A: Its IC50 is greater than 1.5 nM.

Q: And the Kd [2]?
A: Its Kd is 500 to 1100 nM.

Q: What about the Kd [3] of the same molecule?
A: The Kd was greater than 1 nM.

Q: Which results are given for `CO[C@@H]1C[C@H](C[C@@H](C)[C@@H]2CC(=O)[C@H](C)/C=C(\C)[C@@H](O)[C@@H](OC)C(=O)[C@H](C)C[C@H](C)/C=C/C=C/C=C(\C)[C@H](OCC3COC3)C[C@@H]3CC[C@@H](C)[C@@](O)(O3)C(=O)C(=O)N3CCCC[C@H]3C(=O)O2)CC[C@H]1OCCO` [Compound 75, (1R,9S,12S,15R,16E,18R,19R,21R,23S,24E,26E,28E,30R,32S,35R)-1,18-dihydroxy-12-[(1R)-2-[(1S,3R,4R)-4-(2-hydroxyethoxy)-3-methoxy-cyclohexyl]-1-methyl-ethyl]-19-methoxy-15,17,21,23,29,35-hexamethyl-30-(oxetan-3-ylmethoxy)-11,36-dioxa-4-azatricyclo[30.3.1.04,9]hexatriaconta-16,24,26,28-tetraene-2,3,10,14,20-pentone]?
A: IC50 [1]: > 1.5 nM; Kd [2]: > 1100 nM; Kd [3]: 0.3 to 1 nM

Q: For `CO[C@@H]1C[C@H](C[C@@H](C)[C@@H]2CC(=O)[C@H](C)/C=C(\C)[C@@H](O)[C@@H](OC)C(=O)[C@H](C)C[C@H](C)/C=C/C=C/C=C(\C)[C@@H](OC3CC3)C[C@@H]3CC[C@@H](C)[C@@](O)(O3)C(=O)C(=O)N3CCCC[C@H]3C(=O)O2)CC[C@H]1O` [Compound 120, (1R,9S,12S,15R,16E,18R,19R,21R,23S,24E,26E,28E,30S,32S,35R)-30-(cyclopropoxy)-1,18-dihydroxy-12-[(1R)-2-[(1S,3R,4R)-4-hydroxy-3-methoxy-cyclohexyl]-1-methyl-ethyl]-19-methoxy-15,17,21,23,29,35-hexamethyl-11,36-dioxa-4-azatricyclo[30.3.1.04,9]hexatriaconta-16,24,26,28-tetraene-2,3,10,14,20-pentone], which IC50 [1] is on record?
A: The IC50 was less than 0.8 nM.

Q: And the Kd [2]?
A: Its Kd is less than 500 nM.

Q: And the Kd [3]?
A: The Kd was 0.3 to 1 nM.

Q: With `CO[C@@H]1C[C@H](C[C@@H](C)[C@@H]2CC(=O)[C@H](C)/C=C(\C)[C@@H](O)[C@@H](OC)C(=O)[C@H](C)C[C@H](C)/C=C/C=C/C=C(\C)[C@@H](OCCO)C[C@@H]3CC[C@@H](C)[C@@](O)(O3)C(=O)C(=O)N3CCCC[C@H]3C(=O)O2)CC[C@H]1OCCCN1CCOC[C@@H]1C` [Compound 401, (1R,9S,12S,15R,16E,18R,19R,21R,23S,24E,26E,28E,30S,32S,35R)-1,18-dihydroxy-30-(2-hydroxyethoxy)-19-methoxy-12-[(1R)-2-[(1S,3R,4R)-3-methoxy-4-[3-[(3S)-3-methylmorpholin-4-yl]propoxy]cyclohexyl]-1-methyl-ethyl]-15,17,21,23,29,35-hexamethyl-11,36-dioxa-4-azatricyclo[30.3.1.04,9]hexatriaconta-16,24,26,28-tetraene-2,3,10,14,20-pentone] as the molecule, how does the Kd [2] read?
A: Its Kd is less than 500 nM.

Q: With `CO[C@@H]1C[C@H](C[C@@H](C)[C@@H]2CC(=O)[C@H](C)/C=C(\C)[C@@H](O)[C@@H](OC)C(=O)[C@H](C)C[C@H](C)/C=C/C=C/C=C(\C)[C@@H](OCCO)C[C@@H]3CC[C@@H](C)[C@@](O)(O3)C(=O)C(=O)N3CCCC[C@H]3C(=O)O2)CC[C@H]1OCCCN1CCOC[C@H]1C` [Compound 404, (1R,9S,12S,15R,16E,18R,19R,21R,23S,24E,26E,28E,30S,32S,35R)-1,18-dihydroxy-30-(2-hydroxyethoxy)-19-methoxy-12-[(1R)-2-[(1S,3R,4R)-3-methoxy-4-[3-[(3R)-3-methylmorpholin-4-yl]propoxy]cyclohexyl]-1-methyl-ethyl]-15,17,21,23,29,35-hexamethyl-11,36-dioxa-4-azatricyclo[30.3.1.04,9]hexatriaconta-16,24,26,28-tetraene-2,3,10,14,20-pentone] as the molecule, how does the IC50 [1] read?
A: Its IC50 is less than 0.8 nM.

Q: And the Kd [3]?
A: The Kd was less than 0.3 nM.

Reference: US20230331737A1, “MTORC1 MODULATORS AND USES THEREOF” (Aeovian Pharmaceuticals, Inc., priority 2020, published 2023)
